These are literature values, as cited in patent US20120270783A1, “Rapid opioid detoxification” (priority 2011, published 2012).

The conditions of data set [1]: in vivo.
In data set [2] the test system is receptor sites. The settings on record: relative to naloxone.

Where two headings read alike, the source gives them in different places.

In the case of `C=C1CC[C@@]2(O)[C@H]3Cc4ccc(O)c5c4[C@@]2(CCN3CC2CC2)[C@H]1O5` [nalmefene], the results for the half-life in data set [1] and in data set [1] (listed as Nalmefene) were 10.8 h and “about 10.8 hours”, respectively. Further, the “receptor sites occupied, more than naloxone” value in data set [2] is recorded as “approximately 50%”.

`CC(C)c1cccc(C(C)C)c1O` [propofol, 2,6-diisopropyl phenol]: under “after maintenance of anesthesia for approximately 1-10 hours at recommended doses”, the “time to rapid awakening after discontinuation” value is listed as “less than 20 minutes”. Also, the “time to rapid awakening after discontinuation, usual” value (usually, after maintenance of anesthesia for approximately 1-10 hours) was 10 to 15 min.

In general, half-life refers to how long it takes for the measured level to halve.
